Assay results from ChEMBL document CHEMBL1944625, “Design and synthesis of 3,5-diarylpiperidin-2,6-diones as anticonvulsant agents” (Bioorg Med Chem Lett, 2012).

Tests used:
[1] = Neurotoxicity in ip dosed Swiss albino mouse assessed as impair in motor coordination from 0.5 to 4 hrs post administration by rotarod test; format: toxicity, organism-based; details: in vivo
Mus musculus [2] = organism: Mus musculus; experiment: Protection index, ratio of TD50 for Swiss albino mouse by rotarod test to ED50 for Swiss albino mouse by maximal electroshock test; format: functional
Mus musculus [3] = experiment: Anticonvulsant activity in Swiss albino mouse assessed as protection against maximal electroshock-induced seizures measuring inhibition of extension phase at 25 mg/kg, ip after 2 hrs; format: functional; details: route intraperitoneal
Mus musculus [4] = experiment: Neurotoxicity in Swiss albino mouse assessed as impair in motor coordination at 300 mg/kg, ip after 0.5 hrs by rotarod test; format: toxicity, organism-based; design: dose 300 mg/kg, route intraperitoneal; details: in vivo
Mus musculus [5] = experiment: Neurotoxicity in Swiss albino mouse assessed as impair in motor coordination at 300 mg/kg, ip after 4 hrs by rotarod test; format: toxicity, organism-based; design: dose 300 mg/kg, route intraperitoneal; details: in vivo
Mus musculus [6] = experiment: Anticonvulsant activity in ip dosed Swiss albino mouse assessed as protection against maximal electroshock-induced seizures after 2 hrs; format: functional
Mus musculus [7] = experiment: Neurotoxicity in Swiss albino mouse assessed as impair in motor coordination at 100 mg/kg, ip after 0.5 hrs by rotarod test; format: toxicity, organism-based; design: dose 100 mg/kg, route intraperitoneal; details: in vivo

| SMILES | TD50 [1] | Ratio TD50/ED50 (Mus musculus [2]) | inhibition in vivo at 25 mg/kg (Mus musculus [3]) | Activity (Mus musculus [4]) | Activity (Mus musculus [5]) | ED50 (Mus musculus [6]) | Activity (Mus musculus [7]) |
| --- | --- | --- | --- | --- | --- | --- | --- |
| O=C1C(c2ccccc2Cl)CC(c2ccccc2Cl)C(=O)N1c1cccc(Cl)c1 (configuration not stated) | 108 mg/kg | 1.8 | 43.7% | Non-toxic | Non-toxic | 60.2 mg/kg | – |
| O=C1NC(=O)C(c2ccccc2)CC1c1ccccc1 (configuration not stated) | 193 mg/kg | 17.5 | 70.2% | Non-toxic | Non-toxic | 11 mg/kg | – |
| CN1C(=O)C(c2ccccc2)CC(c2ccccc2)C1=O (configuration not stated) | 323 mg/kg | 21.8 | 69.1% | – | Toxic | 14.8 mg/kg | Toxic |
| O=C1C(c2ccccc2)CC(c2ccccc2)C(=O)N1c1ccccc1 (configuration not stated) | 165 mg/kg | 3.7 | 38.3% | Toxic | Non-toxic | 43.7 mg/kg | – |
| O=C1C(c2ccccc2)CC(c2ccccc2)C(=O)N1Cc1ccccc1 (configuration not stated) | 218 mg/kg | 15.6 | 64.5% | Non-toxic | Non-toxic | 14 mg/kg | – |
| NN1C(=O)C(c2ccccc2)CC(c2ccccc2)C1=O (configuration not stated) | 123 mg/kg | 12.3 | 76% | Non-toxic | Non-toxic | 10 mg/kg | – |
| O=C1C(c2ccccc2)CC(c2ccccc2)C(=O)N1c1cccc(Cl)c1 (configuration not stated) | – | – | 32.2% | Toxic | Non-toxic | > 100 mg/kg | – |
| Cc1ccccc1N1C(=O)C(c2ccccc2)CC(c2ccccc2)C1=O (configuration not stated) | 104 mg/kg | 4.9 | 66.1% | Toxic | Non-toxic | 21.5 mg/kg | – |
| Cc1ccc(N2C(=O)C(c3ccccc3)CC(c3ccccc3)C2=O)cc1 (configuration not stated) | 190 mg/kg | 2.3 | 43.3% | – | Toxic | 82 mg/kg | Toxic |
| O=C1NC(=O)C(c2ccccc2Cl)CC1c1ccccc1Cl (configuration not stated) | 175 mg/kg | 7 | 58.3% | Non-toxic | Non-toxic | 25.5 mg/kg | – |
| CN1C(=O)C(c2ccccc2Cl)CC(c2ccccc2Cl)C1=O (configuration not stated) | 220 mg/kg | 9.2 | 61.7% | – | Toxic | 23.7 mg/kg | Toxic |
| O=C1C(c2ccccc2Cl)CC(c2ccccc2Cl)C(=O)N1c1ccccc1 (configuration not stated) | 198 mg/kg | 3.2 | 40.6% | Non-toxic | Non-toxic | 61.4 mg/kg | – |
| O=C1C(c2ccccc2Cl)CC(c2ccccc2Cl)C(=O)N1Cc1ccccc1 (configuration not stated) | 106 mg/kg | 2.7 | 58.2% | Non-toxic | Non-toxic | 38.3 mg/kg | – |
| NN1C(=O)C(c2ccccc2Cl)CC(c2ccccc2Cl)C1=O (configuration not stated) | 117 mg/kg | 10.6 | 73.3% | Toxic | Toxic | 11.2 mg/kg | – |
| Cc1ccccc1N1C(=O)C(c2ccccc2Cl)CC(c2ccccc2Cl)C1=O (configuration not stated) | 227 mg/kg | 8.3 | 60.6% | Non-toxic | Non-toxic | 27.4 mg/kg | – |
| Cc1ccc(N2C(=O)C(c3ccccc3Cl)CC(c3ccccc3Cl)C2=O)cc1 (configuration not stated) | 86.5 mg/kg | 2.1 | 58.2% | Toxic | Non-toxic | 41.2 mg/kg | – |
| NC(=O)N1c2ccccc2C=Cc2ccccc21 [CARBAMAZEPINE] | – | 6.4 | – | – | – | 11.8 mg/kg | – |
| O=C1N=C(O)NC1(c1ccccc1)c1ccccc1 [PHENYTOIN SODIUM] | – | – | 80.7% | – | – | – | – |
